Laboratory results reported in the NIST ThermoML archive (doi:10.1016/j.fluid.2012.09.037).
Numbers after ± are expanded uncertainties.

Assay: xn = mol fraction of the nth substance listed
Conditions: 373.2 K, Liquid; for mass density: Vibrating tube method; for viscosity: Moving piston method

CCCCCCCCCC [decane] + CCCCCCCCCCCCCC
x1 = 1
Conditions	mass density [kg/m3]
100 kPa	667.1 ± 0.3
1000 kPa	668.4 ± 0.4
2000 kPa	669.6 ± 0.4
3000 kPa	670.9 ± 0.4
4000 kPa	672.1 ± 0.4
5000 kPa	673.4 ± 0.4
6000 kPa	674.5 ± 0.4
7000 kPa	675.7 ± 0.4
8000 kPa	676.9 ± 0.4
9000 kPa	678.1 ± 0.4
10000 kPa	679.2 ± 0.4

CCCCCCCCCC [decane] + O=C=O
Conditions	mass density [kg/m3]	viscosity [mPa·s]
1120 kPa, x2 = 0.075	669 ± 2	0.35 ± 0.04
1950 kPa, x2 = 0.124	671 ± 2	0.33 ± 0.03
3040 kPa, x2 = 0.192	672 ± 2	0.29 ± 0.03
4010 kPa, x2 = 0.246	674 ± 2	0.27 ± 0.03
5110 kPa, x2 = 0.313	676 ± 2	0.25 ± 0.03
6190 kPa, x2 = 0.367	677 ± 2	0.22 ± 0.02

CCCCCCCCCCCCCC [tetradecane] + CCCCCCCCCC
mass density [kg/m3]
Conditions	x2 = 0	x2 = 0.25	x2 = 0.5	x2 = 0.75
100 kPa	705.4 ± 0.3	697.8 ± 0.3	689.1 ± 0.4	679.1 ± 0.4
1000 kPa	706.5 ± 0.4	698.8 ± 0.4	690.3 ± 0.4	680.3 ± 0.4
2000 kPa	707.6 ± 0.4	699.9 ± 0.4	691.5 ± 0.4	681.6 ± 0.4
3000 kPa	708.6 ± 0.4	701 ± 0.4	692.6 ± 0.4	682.7 ± 0.4
4000 kPa	709.6 ± 0.4	702 ± 0.4	693.7 ± 0.4	683.9 ± 0.4
5000 kPa	710.7 ± 0.4	703.1 ± 0.4	694.8 ± 0.4	685.1 ± 0.4
6000 kPa	711.6 ± 0.4	704.1 ± 0.4	695.9 ± 0.4	686.2 ± 0.4
7000 kPa	712.6 ± 0.4	705.2 ± 0.4	697 ± 0.4	687.3 ± 0.4
8000 kPa	713.6 ± 0.4	706.2 ± 0.4	698 ± 0.4	688.4 ± 0.4
9000 kPa	714.6 ± 0.4	707.2 ± 0.4	699 ± 0.4	689.5 ± 0.4
10000 kPa	715.5 ± 0.4	708.2 ± 0.4	700.1 ± 0.4	690.6 ± 0.4

CCCCCCCCCCCCCC [tetradecane] + O=C=O
Conditions	mass density [kg/m3]	viscosity [mPa·s]
960 kPa, x2 = 0.07	707 ± 2	0.6 ± 0.06
2000 kPa, x2 = 0.135	709 ± 2	0.55 ± 0.06
2970 kPa, x2 = 0.198	710 ± 2	0.51 ± 0.05
4000 kPa, x2 = 0.261	711 ± 2	0.47 ± 0.05
4920 kPa, x2 = 0.307	713 ± 2	0.44 ± 0.04
5970 kPa, x2 = 0.358	714 ± 2	0.41 ± 0.04
